Source: ChEMBL document CHEMBL3352591, “Total synthesis of clavatadine A” (J Nat Prod, 2015)

Target: Coagulation factor XI (Homo sapiens, UniProt P03951)
Assay: Inhibition of human coagulation factor 11a pre-incubated for 15 mins before substrate S2366 addition and measured after 2 hrs post substrate addition

Coagulation factor XI, sequence (P03951 19-387 limits assumed): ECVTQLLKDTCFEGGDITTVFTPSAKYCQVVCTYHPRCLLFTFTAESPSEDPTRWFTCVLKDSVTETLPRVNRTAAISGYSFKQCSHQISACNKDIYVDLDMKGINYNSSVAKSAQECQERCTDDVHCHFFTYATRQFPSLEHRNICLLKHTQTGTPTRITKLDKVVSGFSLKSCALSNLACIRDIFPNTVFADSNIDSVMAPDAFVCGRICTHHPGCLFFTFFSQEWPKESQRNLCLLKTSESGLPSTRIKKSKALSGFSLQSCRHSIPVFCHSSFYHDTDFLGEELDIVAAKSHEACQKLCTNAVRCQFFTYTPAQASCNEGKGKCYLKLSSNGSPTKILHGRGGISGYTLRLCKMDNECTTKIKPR
Coagulation factor XI, sequence (P03951 388-625 limits assumed): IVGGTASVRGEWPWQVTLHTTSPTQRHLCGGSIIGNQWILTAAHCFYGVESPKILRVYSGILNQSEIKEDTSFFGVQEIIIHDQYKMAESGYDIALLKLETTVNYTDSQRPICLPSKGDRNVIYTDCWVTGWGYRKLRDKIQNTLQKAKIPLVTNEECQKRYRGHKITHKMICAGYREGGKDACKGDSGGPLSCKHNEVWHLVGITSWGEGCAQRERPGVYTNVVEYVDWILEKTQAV

Which IC50 does the source give for `N=C(N)NCCCCNC(=O)Oc1c(Br)cc(O)c(CC(=O)O)c1Br` here?
The IC50 was 6.3 µM.
